# Experimental data as given in PubChem BioAssay (NCI).
# Several values for one entry are separate records, joined by “and”; a condition that tells them apart may be missing. Equal entries are not always repeated.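 Grown in 96-well plates, cells were treated for 48 hours with each compound at five concentrations. Insufficient inhibition: endpoint recorded as highest concentration tested. GI50 is the concentration that inhibits growth by half. TGI: concentration producing complete growth inhibition.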
# Experiments:
# Assay in all cases: growth of human tumour cells (NCI), 48 h
# 786-0 renal = tested on: 786-0 renal
# MDA-MB-231 breast = tested on: MDA-MB-231 breast
# HOP-92 NSCLC = tested on: HOP-92 NSCLC
# SNB-19 CNS = tested on: SNB-19 CNS
# MALME-3M melanoma = tested on: MALME-3M melanoma
# T-47D breast = tested on: T-47D breast
# SK-MEL-5 melanoma = tested on: SK-MEL-5 melanoma
# UO-31 renal = tested on: UO-31 renal
# LOX IMVI melanoma = tested on: LOX IMVI melanoma
# SN12C renal = tested on: SN12C renal
SMILES,GI50 (786-0 renal),TGI (786-0 renal),GI50 (MDA-MB-231 breast),TGI (MDA-MB-231 breast),GI50 (HOP-92 NSCLC),TGI (HOP-92 NSCLC),GI50 (SNB-19 CNS),TGI (SNB-19 CNS),GI50 (MALME-3M melanoma),TGI (MALME-3M melanoma),GI50 (T-47D breast),TGI (T-47D breast),GI50 (SK-MEL-5 melanoma),TGI (SK-MEL-5 melanoma),GI50 (UO-31 renal),TGI (UO-31 renal),GI50 (LOX IMVI melanoma),TGI (LOX IMVI melanoma),GI50 (SN12C renal),TGI (SN12C renal)
Oc1ccc(N=Nc2ccc(N=Nc3ccccc3)cc2)cc1,1.32 µM,6.05 µM,2.5 µM,7.09 µM,6.97 µM,28.1 µM,6.39 µM,19.7 µM,11.6 µM,25.7 µM,1.61 µM,6.73 µM,2.1 µM,5.64 µM,0.61 µM,3.73 µM,0.285 µM,1.76 µM,3.95 µM,17.2 µM
CC(C)C[C@@H]1NC(=O)[C@@H]2CCCN2C(=O)[C@@H]2CCCN2C(=O)[C@H](CC(C)C)NC(=O)[C@H](CO)NC(=O)[C@H](CCCCN)NC(=O)[C@H]([C@H](C)O)NC(=O)[C@@H]2CCCC[C@@H](NC1=O)C(=O)N[C@@H](Cc1ccccc1)C(=O)N1CCC[C@H]1C(=O)N[C@@H](CC(=O)O)C(=O)NCC(=O)N[C@@H](CCCN=C(N)N)C(=O)N2,> 50 µM,> 50 µM,> 50 µM,> 50 µM,> 50 µM,> 50 µM,> 50 µM,> 50 µM,> 50 µM,> 50 µM,> 50 µM,> 50 µM,> 50 µM,> 50 µM,> 50 µM,> 50 µM,> 50 µM,> 50 µM,> 50 µM,> 50 µM
CCCCCN(CCCCC)CC(O)c1cc2c(c3ccccc13)CCCC2 (configuration not stated),3.75 µM and 6.51 µM,13 µM and 19.1 µM,3.01 µM and 7.04 µM,10.5 µM and 21.4 µM,2.5 µM and 3.53 µM,8.94 µM and 17.1 µM,11 µM and 17.9 µM,22.9 µM and 39.4 µM,3.71 µM and 10.4 µM,15.6 µM and 24.6 µM,3.04 µM and 7.77 µM,14.2 µM and 25.7 µM,2.08 µM and 3.98 µM,5.01 µM and 14.1 µM,3.79 µM and 6.15 µM,15.6 µM and 22.1 µM,3.71 µM and 4.93 µM,14.8 µM and 28.1 µM,6.12 µM and 13.8 µM,19.8 µM and 30 µM
OC(CNC1CCCC1)Cn1c2ccccc2c2ccccc21 (configuration not stated),36.1 µM,> 100 µM,27.7 µM,> 100 µM,14.9 µM,34.7 µM,29.4 µM,> 100 µM,37 µM,> 100 µM,33.9 µM,> 100 µM,> 100 µM,> 100 µM,97.2 µM,> 100 µM,> 100 µM,> 100 µM,44.2 µM,> 100 µM
C[C@@H]1C[C@@]2(O[C@@H]2C)C(=O)O[C@@H]2CCN3CC=C(COC(=O)[C@]1(C)O)[C@H]23,–,> 100 µM,–,> 100 µM,–,> 100 µM,–,> 100 µM,–,> 100 µM,–,> 100 µM,–,> 100 µM,–,> 100 µM,–,> 100 µM,–,> 100 µM
N#Cc1nc2cc(F)c(F)cc2nc1-c1ccc(Cl)cc1,16.3 µM,43.9 µM,–,5.3 µM,0.0614 µM,15 µM,14.5 µM,> 85.9 µM,15.8 µM,39.1 µM,20.9 µM,> 62.1 µM,14.4 µM,40.6 µM,12.2 µM,38.1 µM,1.32 µM,2.68 µM,6.83 µM,34.8 µM
COc1ccc2c(c1)OC(N)=C(C#N)C2c1ccc(F)cc1 (configuration not stated),3.96 µM,> 100 µM,3.09 µM,97.5 µM,8.52 µM,75.5 µM,2.25 µM,> 100 µM,12.9 µM,77.9 µM,3.78 µM,> 100 µM,2.49 µM,18.5 µM,5.64 µM,> 100 µM,1.98 µM,> 100 µM,6.82 µM,> 100 µM
OCCNCCNc1c2ccccc2nc2oc3ccccc3c12,7.44 µM,22.2 µM,10.3 µM,37.5 µM,6.15 µM,25.7 µM,11.6 µM,36.2 µM,11.4 µM,41.8 µM,11.7 µM,38.4 µM,8.97 µM,21.1 µM,7.28 µM,34.4 µM,5.87 µM,20.6 µM,8.86 µM,57.7 µM
COC(=O)[C@@H](C)C[C@H](Cc1ccccc1)NC(=O)c1csc([C@@H](C[C@H](C(C)C)N(C)C(=O)C2(NC(=O)[C@H]3CCCCN3C)CC2)OC(C)=O)n1,–,> 33.3 µM,0.00681 µM and 0.00333 µM,4.36 µM,0.00434 µM and 0.00333 µM,5.29 µM,0.00824 µM and 0.00333 µM,> 33.3 µM,> 33.3 µM,> 33.3 µM,0.00333 µM,> 33.3 µM,0.00374 µM and 0.00333 µM,–,1.3 µM,> 33.3 µM,0.00947 µM and 0.00333 µM,> 33.3 µM,0.0156 µM and 0.00333 µM,> 33.3 µM
